Consider four compounds from publication PMC10403511, “DNA-encoded chemical libraries yield non-covalent and non-peptidic SARS-CoV-2 main protease inhibitors” (Communications Chemistry, 2023).

Data set [1] is classed as in vitro ADME, human. The conditions noted are these: 10 μM. The method, then:
(§1) At time points of 0, 30, 60, and 120 min, 15 μL of the samples were taken out, and the reactions were terminated by adding 75 μL of ice-cold methanol. The reaction mixtures were then vortexed for 30 s and centrifuged at 15,000 rcf for 15 min. […] The percentage of test compound remaining at the individual time points was normalized by the 0-min.
(§2) 10 µM in duplicate (n=2) at 37 °C. The reactions were terminated at time points of 0, 30, 60 and 120 min by adding ice-cold methanol. Following centrifugation, the supernatant was analyzed using UHPLC-Q E xa ct ive Orbitrap MS. The percentage of test compound remaining at the individual time points relative to the 0 min sample was determined S12

The nature of data set [2]: in vitro. To be noted: human.
The nature of data set [3]: in vivo. To be noted: 50 mg/kg; for half-life: plasma; for CL/F: mice, per oral gavage (po.), n=4, mean ± SD. The procedure:
The whole blood samples were centrifuged at rcf 2000 for 5 min for the plasma separation of plasma. The plasma samples were stored at −80 °C before analysis. All the samples were analyzed with a Q Exactive orbitrap MS coupled with UHPLC (Thermo Fisher Scientific, San Jose, CA). LC-Q Exactive MS was operated in the same parameters used in the cell uptake assay above. The concentration of these compounds in plasma was quantified using individual calibration curves.
PK parameters such as half-time (T1/2), area under the plasma concentration–time curve during the period of observation (AUC0–t), area under the plasma concentration–time curve from zero to infinity (AUC0–∞), clearance normalized by the bioavailability (CL/F), and the mean residence time (MRT) were calculated by WinNonlin software (Certara, Princeton, NJ) by noncompartmental analysis. The plasma concentration–time curves were plotted in Prism 7 (GraphPad, San Diego, CA) as mean ± S.D.
Mouse PK of CDD compounds, 50 mg/kg
samples we re collected at 0, 5, 10, 15, 30 m in , 1, 2, 4, 6 and 8 h af ter dosing. P la sm a samples we re separated, prepared and analyzed wit h LC-MS. The compound
± SD (n=4). Tmax, time to rea ch the m a ximum pla sma concentration. Cm ax, maximum p las m a concentration. T1/2, half-lif e . AUC, area under the cu rve . CL, clea ran ce . F,
bioavailability. M R T, mean residence time.

In data set [4] the target is T1, matrix metallopeptidase-1 (MMP-1) (Homo sapiens, UniProt P03956).
T1 construct: purchased Biovision K794-100
T1 sequence (P03956 100-469): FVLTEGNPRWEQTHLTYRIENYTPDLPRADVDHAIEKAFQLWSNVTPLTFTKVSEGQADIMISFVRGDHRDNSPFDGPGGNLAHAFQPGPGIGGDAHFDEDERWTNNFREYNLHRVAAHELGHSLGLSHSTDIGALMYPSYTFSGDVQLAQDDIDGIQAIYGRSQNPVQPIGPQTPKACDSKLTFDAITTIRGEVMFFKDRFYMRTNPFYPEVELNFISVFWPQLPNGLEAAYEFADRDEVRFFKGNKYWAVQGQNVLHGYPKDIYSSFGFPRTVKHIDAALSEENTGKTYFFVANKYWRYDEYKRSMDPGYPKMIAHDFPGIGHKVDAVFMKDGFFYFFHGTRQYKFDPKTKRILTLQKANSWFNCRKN
Kind of data set: Human protease off-target assay, commercial kit. Format: biochemical. To be noted: 10 µM compound, 37 °C. The procedure:
(§3) These assays were done exactly as we described earlier. In brief, commercial kits were used for all four human proteases as follows: Cathepsin B (BPS Bioscience, #79590), Renin (BPS Bioscience, #80211), Thrombin (Sigma-Aldrich, #MAK243), and MMP-1 (Biovision, #K794-100). All assays were run in kinetic mode and at RT, except MMP-1, which was run at 37 °C. Positive controls were used for all assays, i.e., E64 for Cathepsin B, Aliskiren for Renin, CDD-1472 for Thrombin, and GM 6001 for MMP-1. Activities were obtained from linear initial progress curves, and fractional activities were calculated from reactions with no inhibitors[17],[19],[34].
(§4) Supplementary Figure 4. Potential off-target inhibition of major proteases, i.e. thrombin (a serine protease), cathepsin B (a cysteine protease like Mpro), renin (an
(§5) control inhibitors as indicated. S9 […]

For data set [5], the target named is T2, renin (Homo sapiens, UniProt P00797).
T2 construct: purchased BPS Bioscience 80211
T2 sequence (P00797 67-406): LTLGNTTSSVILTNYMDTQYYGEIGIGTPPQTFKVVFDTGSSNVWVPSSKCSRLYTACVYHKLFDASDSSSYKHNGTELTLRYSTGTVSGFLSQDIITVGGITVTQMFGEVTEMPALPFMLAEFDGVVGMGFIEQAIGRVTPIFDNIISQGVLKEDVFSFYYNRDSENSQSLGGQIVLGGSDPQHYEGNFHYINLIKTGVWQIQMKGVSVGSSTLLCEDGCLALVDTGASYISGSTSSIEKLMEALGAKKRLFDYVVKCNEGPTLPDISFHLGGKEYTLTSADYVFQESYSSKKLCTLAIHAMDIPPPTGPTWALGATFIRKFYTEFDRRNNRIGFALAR
Briefly: Human protease off-target assay, commercial kit. Format: biochemical. The conditions noted are these: 11.1 µM compound. The procedure: as §3, §4, §5

For data set [6], the target named is T3, thrombin (Homo sapiens, UniProt P00734).
T3 construct: purchased Sigma-Aldrich MAK243
Briefly: Human protease off-target assay, commercial kit. Format: biochemical. The conditions noted are these: 10 µM compound. The procedure:
as §3, §4, §5

The target in data set [7] is T4, cathepsin B (Homo sapiens, UniProt P07858).
T4 construct: purchased BPS Bioscience 79590
Kind of data set: Human protease off-target assay, commercial kit. The conditions noted are these: 10 µM compound. Format: biochemical. The method, then:
as §3, §4, §5

The test system of data set [8] is HepG2 cells.
The format of data set [9] is in vitro ADME, mouse. The conditions noted are these: 10 μM. The method, then:
as §1, §2

Data set [10] deals with HepG2 cells. Kind of data set: cells. To be noted: Homo sapiens, HepG2, 24 h, read-out: IC50 (HepG2 cell viability).
Data set [11] relates to HepG2 cells. The data set is classed as in vitro ADME. The conditions noted are these: 10 μM, 2 h. The method, then: The plate was incubated at 37 °C for another 2 h, and the medium in the plate was then decanted. The cells were rinsed with 1 mL of 1× DPBS three times, trypsinized at 37 °C for 3.5 min, centrifuged, and the cell pellets from each well were reconstituted in 500 μL of MeOH/H2O (vol/vol 1/1). […] The mixtures were centrifuged at 15,000 rcf for 15 min. Three microliters of the supernatant were injected into UHPLC-Q Exactive Orbitrap MS (Thermo Fisher Scientific) equipped with a 50 × 4.6-mm column (XDB C-18; Agilent Technologies) for analysis. The column temperature was set at 40 °C. The mobile phase system was (A) water (containing 0.1% formic acid) and (B) acetonitrile (containing 0.1% formic acid), with a flow rate of 0.3 mL/min. The gradient elution program was set as follows: 0 to 0.25 min, 40% B; 0.25 to 1.5 min, 40 to 98% B; 1.5 to 3.5 min, 98% B; 3.5 to 3.8 min, 98 to 40% B; 3.8 to 5 min, 40% B. Ultrapure nitrogen was used as the sheath (45 arbitrary units), auxiliary (10 arbitrary units), and sweep (1.0 arbitrary unit) gas. The capillary and auxiliary gas temperatures were 275 °C and 380 °C, respectively. The spray voltage was 3.75 kV. […]
were expressed as the intracellular concentrations (peak areas) of these compounds. […]
and homogenized. The intracellular concentrations were measured with UHPLC-Q E xa ct ive Orbitrap MS. ND stands for “not detected”.

Data set [12] relates to M^pro variant A173V. The conditions noted are these: previously shown; cited from earlier work.
Data set [13] relates to M^pro variant ΔP168/A173V. To be noted: previously shown; cited from earlier work.

SMILES strings stand for the structures. Read-outs that look alike come from different tables or passages of the source.

With `CNC(=O)CCCn1c(-c2cncc3ccccc23)nc2cccc(C(=O)N[C@@H](C)c3ccc4ccccc4c3)c21` [CDD-1845], the “compound remaining in plasma” value in data set [1] (human, plasma, 2 h) is reported as 80%. For the same compound, in [2], the viability at 24 h, 100 µM is above 80%. In data set [3] (male, mouse, in vivo, po), this compound came in with an AUC(0-inf) of 14.9 ± 7.85 µM·h, an AUC(0-t) of 14.9 ± 7.79 µM·h, a maximum concentration (Cmax) of 8.93 ± 4.55 µM and a mean residence time (MRT inf) of 1.25 ± 0.02 h. In data set [3] (male, mouse, in vivo, po), the MRT last came to 1.22 ± 0.03 h and the Tmax came to 0.33 ± 0.14 h. This compound gave a half-life in data set [3] (male, mouse, oral) of 1.1 ± 0.3 h. For the same compound, in [3] (male, mouse, po), the half-life is 1.14 ± 0.32 h. Further, the CL/F in data set [3] is 4.02 ± 1.98 mg/ ( hr*µmol/L)/kg. Further, the “inhibition of enzymatic activity” value in data set [4] is given as “None of these inhibitors blocked the enzymatic activity”. Also, the “inhibition of enzymatic activity” value in [5] is given as “None of these inhibitors blocked the enzymatic activity”. For the same compound, in data set [6], the “inhibition of enzymatic activity” value is “None of these inhibitors blocked the enzymatic activity”. Further, the “inhibition of enzymatic activity” value in [7] is “None of these inhibitors blocked the enzymatic activity”. Besides, the cytotoxicity entry in data set [8] is on record as “no obvious cytotoxicity”. For the same compound, in data set [9] (mouse, plasma, 2 h), the “compound remaining in plasma” value amounted to 80%. The IC50 in data set [10] was above 100 µM.
As for `CCC[C@H](NC(=O)c1cccc2nc(-c3cncc4ccccc34)n([C@H]3C[C@H](C(=O)NC)C3)c12)c1ccc(C(F)(F)F)cc1` [CDD-1733], the “compound remaining in plasma” value in data set [1] (human plasma, 37 °C, after 2 h incubation) turned out to be 80%; in [9] (mouse plasma, 37 °C, after 2 h incubation) it was 80%. Besides, the “inhibition of enzymatic activity” value in data set [4], in [5], in data set [6] and in data set [7] was “None of these inhibitors blocked the enzymatic activity” each time. In data set [8] (HepG2 cells), the cytotoxicity entry is given as “no obvious cytotoxicity”. The IC50 in data set [10] is above 100 µM. Besides, the “cell uptake (permeability)” value in [11] is “good permeability”.
In the case of `CNC(=O)[C@H]1C[C@H](n2c(-c3cncc4ccccc34)nc3cccc(C(=O)N[C@@H](C)c4ccc5ccccc5c4)c32)C1` [CDD-1819], the “compound remaining in plasma” value in data set [1] (human, plasma, 2 h) turned out to be 80%; in data set [9] (mouse, plasma, 2 h), 80%. The viability at 24 h, 100 µM in data set [2] is above 80%. Moreover, in data set [3] (male, mouse, in vivo, po), the MRT inf is 1.42 ± 0.16 h. The compound further registered an MRT last in data set [3] (male, mouse, in vivo, po) of 1.31 ± 0.12 h. The Tmax in data set [3] (male, mouse, in vivo, po) was determined as 0.33 ± 0.14 h. This compound also showed a half-life in data set [3] (male, mouse, oral) of 1.2 ± 0.1 h. The CL/F in data set [3] is recorded as 7.26 ± 1.81 mg/ ( hr*µmol/L)/kg. In addition, the “inhibition of enzymatic activity” value in [4], in data set [5], in [6] and in data set [7] was “None of these inhibitors blocked the enzymatic activity” in each case. Further, the cytotoxicity result in data set [8] is on record as “no obvious cytotoxicity”. For the same compound, the IC50 in [10] was above 100 µM.
`CC(C)(C)[C@H](NC(=O)C(F)(F)F)C(=O)N1C[C@H]2[C@@H]([C@H]1C(=O)N[C@H](C#N)C[C@@H]1CCNC1=O)C2(C)C` [Nirmatrelvir, nirmatrelvir]: the “increase in Ki relative to WT” value in data set [12] was 50 fold; in data set [13] it was 600 fold.
